Counter-ions that a name gives are not always drawn.
Assays:
ACE = ACE expression in HMVEC-L by Western blotting; format: cell-based, human
From the text: Histology and immunohistochemistry. The removed kidneys and lungs were fixed in 10% buffered formalin, embedded in paraffin, and then cut into 4-10.1 μm sections. The sections were stained with H&E, PAS, and Masson's trichrome. Another tissue sample was embedded in OCT compound (Sakura Finetek) and frozen in liquid nitrogen for immunostaining. Sections were cut to a thickness of 3 μm with a cryostat and fixed in acetone. High-power fields were used to examine the sections for evidence of focal sclerosis (J. Hypertens. 13:1785-1790, J. Lab. Clin. Med. 115:165-173). Glomerular sclerosis was assessed by semiquantitative score (grades 0 to +4) using the method of Raij et al. (Kidney Int. 26:137-143): grade 0, no sclerosis of glomeruli; grade 1, sclerosis of up to 25% of glomerulus; grade 2, sclerosis of 25%-50% of glomerulus; grade 3, sclerosis of 50%-75% of glomerulus; grade 4, sclerosis of 75%-100% of glomerulus. At least 50 glomeruli were evaluated under ×400 magnification and results averaged for each kidney (Mdk^+/+: 2 weeks, n=5; 4 weeks, n=4; 8 weeks, n=4; Mdk^−/−: 2 weeks, n=4; 4 weeks, n=3; 8 weeks, n=3). Immunostaining for ACE and MK was performed on buffered formalin-fixed tissues. Sections were deparaffinized, rehydrated, incubated in 3% hydrogen peroxide in methanol to block endogenous peroxidase, and washed in 10% normal goat serum (Dako) in PBS to block nonspecific binding. Subsequently, sections were incubated with mouse anti-ACE monoclonal antibody (dilution, 1:400; Chemicon International, Millipore) or anti-MK monoclonal antibody (dilution, 1:100) overnight at 4° C. as described previously (22), followed by a conjugate of polyclonal goat anti-mouse IgG antibody and HRP-labeled polymer (Histofine Simple Stain; Nichirei) for 1 hour at room temperature as a secondary antibody. The staining was visualized with 3-3′ diaminobenzidine (Nichirei) to produce a brown color. The sections were covered with 90% glycerol containing p-phenylenediamine and were examined by electron microscopy (H-7100; Hitachi). For double immunofluorescence staining of MK and thrombomodulin as a marker of the vascular endothelium, the cryosections of lungs were first incubated with chicken anti-human MK (dilution, 1:200) and then with rabbit anti-rat thrombomodulin (dilution, 1:1,000) (J. Immunol. 150:5633-5646), followed by incubation with FITC-labeled rabbit anti-chicken IgG (dilution, 1:160) and rhodamine-labeled goat anti-rabbit IgG (dilution, 1:320) as secondary antibodies. […] The lung and kidney section from each mouse was viewed under ×400 magnification, and then macrophages or neutrophils were counted from 10 fields and averaged. […]

HMVEC-L = assay: Ang II concentration in HMVEC-L (conversion from Ang I to Ang II); format: cell-based, human; conditions: HMVEC-L treated 36 hours with MK 100 ng/ml plus heparin 20 μg/ml or heparin alone, then Ang I added
Experimental: Ang II concentration in HMVEC-L. After reaching confluence, HMVEC-L were washed with PBS and cultured for 24 hours in essential basal medium containing 0.5% FBS. These cells were exposed to 100 ng/ml rh-MK plus 20 μg/ml heparin or 20 μg/ml heparin alone in essential basal medium containing 0.5% FBS for 36 hours. After stimulation, HMVEC-L were washed with PBS and exposed to 500 pM Ang I (Sigma-Aldrich) for 10 and 25 minutes. Supernatants were collected into chilled tubes, and then the Ang II concentration was measured as previously described (Hypertension. 39:129-134).

[1] = Body weight, blood urea nitrogen and serum creatinine after 5/6 nephrectomy, drug treatment model; format: in vivo; conditions: Mdk+/+ mice; for BUN (blood urea nitrogen) / Cre (serum creatinine): 2 weeks after nephrectomy, oral daily at indicated dose, mean ± SD; for Abnormal elevation of blood urea nitrogen and serum creatinine: 2 weeks after 5/6 nephrectomy
Experimental: Animals and experimental design. Mice deficient in Mdk were generated as described previously (Genes Cells. 3:811-822). After backcrossing of Mdk+/− mice for 14 generations with 129/Sv mice, Mdk+/− mice were mated with each other to generate Mdk^+/+ and Mdk^−/− mice, which were used in this study. Experiments were performed on 8 to 12-week-old female mice weighing 20-25 g that were housed under controlled environmental conditions and maintained with standard food and water. Animal care and experimental procedures were approved by the Animal Experimentation Committee of the Nagoya University Graduate School of Medicine and were conducted according to the Nagoya University Regulations for Experiments. Renal ablation was performed as described previously. Briefly, mice were anesthetized by diethyl ether. The flank region was shaved, and the animals were placed on a heating pad to maintain a constant body temperature (37° C.). Under anesthesia, right flank incisions were made, and the right kidney was removed. Seven days later, mice were anesthetized as above, and two-thirds of the mass of the left kidneys was ablated (Mdk^+/+: 2 weeks, n=13; 4 weeks, n=13; 8 weeks, n=8; Mdk^−/−: 2 weeks, n=10; 4 weeks, n=10; 8 weeks, n=4). After the renal ablation, the flanks were closed in 2 layers with 5-0 silk sutures. The animals received 100 ml/kg warm saline instilled into the peritoneal cavity during the procedure and were allowed to recover with free access to food and water. In the control mice, a sham operation was performed (Mdk^+/+, n=11; Mdk^−/−, n=8).
(§1) Drug treatment model. In the drug treatment studies, Mdk^+/+ mice were randomly assigned to receive one of the following 5 treatments after 5/6 nephrectomy and were orally treated daily starting from 24 hours after 5/6 nephrectomy: vasodilator (hydralazine hydrochloride; Novartis) at a dose of 10 mg/kg/d (group 1, n=3); ACE inhibitor (temocapril; Daiichi Sankyo Co.) at a dose of 3 mg/kg/d (group 2, n=3); angiotensin receptor blocker (olmesartan; Daiichi Sankyo Co.) at a dose of 3 mg/kg/d (group 3, n=3); antioxidative reagent (tempol; Alexis Biochemicals) at a dose of 3 mmol/l in drinking solution after 5/6 nephrectomy (group 4, n=6); and sham operation (group 5, n=6). Drug treatment was performed […]. In the present study, we determined the dosage according to previous reports (Hypertension. 13:582-588, J. Cardiovasc. Pharmacol. 40:533-542, Hypertension. 43:841-848). Blood pressure was measured by the tail-cuff method at 2 weeks, as described below under Blood pressure monitoring. Mice were sacrificed at 2 weeks after 5/6 nephrectomy, and blood and tissue samples were collected.
Sample collection. Mice were sacrificed at 2, 4, and 8 weeks after 5/6 nephrectomy. The remnant kidney, lung, brain, heart, and liver were removed rapidly, snap-frozen in liquid nitrogen, and stored at −80° C. until examinations were performed. Each tissue was processed for histology, protein extraction, and RNA extraction. Blood samples were collected into chilled tubes for measurement of renal function parameters and into chilled tubes containing EDTA for Ang II measurements. Serum and plasma were separated by centrifugation (500 g for 10 minutes) and stored at −80° C. until measurement were performed. Serum creatinine, blood urea nitrogen (Mdk^+/+: sham, n=6; 2 weeks, n=10; 4 weeks, n=9; 8 weeks, n=8; Mdk^−/−: sham, n=7; 2 weeks, n=7; 4 weeks, n=6; 8 weeks, n=4), and Ang II concentrations (Mdk^+/+: sham, n=6; 2 weeks, n=6; 4 weeks, n=8; Mdk^−/−: sham, n=6; 2 weeks, n=7; 4 weeks, n=5) were measured by Mitsubishi BCL.

[2] = test system: Mdk+/+ mice after 5/6 nephrectomy; assay: Blood pressure by tail-cuff method, drug treatment model after 5/6 nephrectomy; format: in vivo; conditions: 2 weeks after 5/6 nephrectomy
Experimental: as §1
(§2) Blood pressure monitoring. Blood pressure was measured in restrained, conscious mice by the indirect tail-cuff technique under unstressed conditions (BP-98A; Softron) at 0, 2, 4, 6, and 8 weeks after 5/6 nephrectomy (J. Lab. Clin. Med. 78:957-962). Before measurement, the mice were warmed with a heating pad for 5 minutes. A total of 7-10 readings were taken for each mouse, at 1- to 2-minute intervals.

[3] = test system: Mdk+/+ mice after 5/6 nephrectomy; assay: Kidney histology (PAS staining) after 5/6 nephrectomy, drug treatment model; format: in vivo; conditions: 2 weeks after 5/6 nephrectomy, PAS staining
Experimental: as §1
Histology and immunohistochemistry.

[4] = test system: Mdk-/- mice after 5/6 nephrectomy; assay: rh-MK and -PTN treatment model (osmotic pump), blood pressure by tail-cuff; format: in vivo; conditions: 1.6 mg/ml, 100 μl by osmotic pump over 14 days
Experimental: rh-MK and -PTN treatment model. In the pump study, MK protein in saline (1.6 mg/ml) (n=5), PTN in saline (1.6 mg/ml; n=5), or saline alone (n=5) was infused using an osmotic pump (ALZA Corp.) into Mdk^−/− mice after 5/6 nephrectomy. The pumps continuously infused a total of 100 μl over 14 days. The pumps were implanted under the dorsal skin the next day after 5/6 nephrectomy. Blood pressure was measured by the indirect tail-cuff technique at 0 and 2 weeks after 5/6 nephrectomy. Mice were sacrificed at 2 weeks after 5/6 nephrectomy, and blood and tissue samples were collected.
as §2

CN(C)CCCn1cc(C2=C(c3c[nH]c4ccccc34)C(=O)NC2=O)c2ccccc21 [BIS, bisindolylmaleimide I]
MK-mediated increase in ACE expression (ACE; BIS 5 μM added 1 hour before 36-hour treatment with rh-MK plus heparin): blocked | PMA-induced increase in ACE expression (ACE; BIS added 1 hour before PMA): blocked

heparin
Conversion of Ang I to Ang II (HMVEC-L): did not show such a conversion

CCCCCCCCCCCCCC(=O)O[C@@H]1[C@@H](C)[C@@]2(O)[C@@H](C=C(CO)C[C@]3(O)C(=O)C(C)=C[C@@H]23)[C@@H]2C(C)(C)[C@]12OC(C)=O [PMA]
ACE expression in HMVEC-L (ACE; PMA 50 ng/ml): induced

CCOC(=O)[C@H](CCc1ccccc1)N[C@H]1CS[C@H](c2cccs2)CN(CC(=O)O)C1=O [Temocapril, temocapril]
BUN (blood urea nitrogen) [1]: 30.3 ± 2.9^A mg/dl | Cre (serum creatinine) [1]: 0.21 ± 0.04^A mg/dl | Abnormal elevation of blood urea nitrogen and serum creatinine [1]: ameliorated | Blood pressure / hypertension [2]: reduced | Renal tubulointerstitial damage [3]: reduced

NNc1nncc2ccccc12 [Hydralazine, hydralazine hydrochloride]
BUN (blood urea nitrogen) [1]: 63.3 ± 7.6 mg/dL | Cre (serum creatinine) [1]: 0.53 ± 0.12 mg/dL | Abnormal elevation of blood urea nitrogen and serum creatinine [1]: not | Blood pressure / hypertension [2]: ameliorated hypertension | Renal tubulointerstitial damage [3]: not

CCCc1nc(C(C)(C)O)c(C(=O)O)n1Cc1ccc(-c2ccccc2-c2nnn[nH]2)cc1 [Olmesartan, olmesartan]
BUN (blood urea nitrogen) [1]: 36.0 ± 1.0^B mg/dl | Cre (serum creatinine) [1]: 0.21 ± 0.01^A mg/dl

B1: PTN: recombinant human pleiotrophin, shows 50% homology with MK (protein, UniProt P21246 33-168, looked up)
Pleiotrophin: GKKEKPEKKVKKSDCGEWQWSVCVPTSGDCGLGTREGTRTGAECKQTMKTQRCKIPCNWKKQFGAECKYQFQAWGECDLNTALKTRTGSLKRALHNAECQKTVTISKPCGKLTKPKPQAESKKKKKEGKKQEKMLD
Hypertension (SBP) [4]: neither induced hypertension

Source: patent US20110059102A1, “Therapeutic Method Targeting Midkine” (NATIONAL UNIVERSITY CORPORATION NAGOYA UNIVERSITY, priority 2009, published 2011)
